Results taken from patent US9464106B2, “Oligonucleotides useful for detecting and analyzing nucleic acids of interest” (Exiqon A/S, priority 2002, dated 2016).
l = locked nucleic acid (LNA); [5mC] = 5-methylcytosine; d = 2'-deoxy (DNA)

System: yeast HSP78 (YDR258C) sequence
Experiment: Duplex melting temperatures of HSP78 25-mer capture probes (UV spectrophotometer)
Conditions: 25-mer capture probe duplex with complementary target; design PM = perfectly matched, MM = single mismatch; DNA, LNA_T (T) or LNA_TC (TC) substituted

Substance	Average duplex melting temp.
12731 (DNA TTGGAAACATCGCGGTGCGCTTTTT; sugars from the 5' end lldddddlddlddddldldddldld, [5mC] at 8, 11, 18, backbone not given here) [compound 12731]	72 °C
12732 (DNA GAAACATCGGGGAGCGCTTTTTCAA; sugars from the 5' end ddddldllddddddldddddldldd, [5mC] at 5, 8, 15, 23, backbone not given here) [compound 12732]	74.8 °C
12733 (DNA GACAGCCTCAGTAAATTGGCCACCA; sugars from the 5' end ddlddldldddddddlldddlddld, [5mC] at 3, 6, 21, 24, backbone not given here) [compound 12733]	77.4 °C
12734 (DNA CCGATTAAACGACAGACAGTATGCT; sugars from the 5' end llddlldddlddddddlddldldld, [5mC] at 1, 2, 10, 17, 24, backbone not given here) [compound 12734]	70.2 °C
12735 (DNA ATCAAATAGGAAATCAGCTAAAGCC; sugars from the 5' end dlldddldddddddlddllddddld, [5mC] at 3, 15, 18, 24, backbone not given here) [compound 12735]	64.6 °C
12736 (DNA GACCTAAGAACAAAAAGCTGGCAAT; sugars from the 5' end ddllldddddlddddddllddlddd, all C 5-methyl, backbone not given here) [compound 12736]	71.4 °C
12737 (DNA AAATAGCAGCAAAGGCCTCGTCTTG; sugars from the 5' end dddlddlddldddddldlldlddld, [5mC] at 7, 10, 16, 19, backbone not given here) [compound 12737]	79.3 °C
12738 (DNA ATAGCAGCAATGCCCTCGTCTTGGC; sugars from the 5' end dlddldddddlddddldddldlddd, [5mC] at 5, 20, backbone not given here) [compound 12738]	71.5 °C
12739 (DNA GCAATGGCCTCGACTTGGCCAACGA; sugars from the 5' end d10 l1 d2 l1 d11, [5mC] at 11, 14, backbone not given here) [compound 12739]	73.1 °C
12740 (DNA GATGAACTCAGGAGGATAGGATCTT; sugars from the 5' end ddldddllldddddddlddddllld, all C 5-methyl, backbone not given here) [compound 12740]	70.4 °C
12741 (DNA TCAGTTAGCCAAACCTTCGCTTCAT; sugars from the 5' end dlddlddddlddddddlddlddldd, [5mC] at 2, 10, 20, 23, backbone not given here) [compound 12741]	70.6 °C
12742 (DNA GTTGCCATGGAGATCAAAATCTGTC; sugars from the 5' end dlddlldlddddddlddddllddld, [5mC] at 5, 6, 15, 21, backbone not given here) [compound 12742]	61.6 °C
12743 (DNA AGACGTACAGCAACAGAAATAGCAG; sugars from the 5' end dddldldlddlddddddddlddldd, [5mC] at 4, 8, 11, 23, backbone not given here) [compound 12743]	73.6 °C
12744 (DNA TTTGGTAGCACGTCAAGCTTAGTAT; sugars from the 5' end ldlddlddldlddddddldlddldd, [5mC] at 9, 11, 18, backbone not given here) [compound 12744]	73.3 °C
12745 (DNA ATAAAGCTGGCATTAGGTCTCTTTT; sugars from the 5' end dlddddllddlddddddllldllld, [5mC] at 7, 11, 19, backbone not given here) [compound 12745]	74 °C
12746 (DNA TTTTTCGGCCAATCGATCTTGAATT; sugars from the 5' end ldldllddlldddddddldldddld, [5mC] at 6, 9, 10, 18, backbone not given here) [compound 12746]	71 °C
12747 (DNA CACTCTAACAGTATCGCCGTTTCTA; sugars from the 5' end ldldldddldddddddlddldllld, [5mC] at 1, 3, 5, 9, 17, 23, backbone not given here) [compound 12747]	75.2 °C
12748 (DNA TCAATGGCCTTGGACCATATAATTG; sugars from the 5' end llddlddldllddddldldlddlld, [5mC] at 2, 8, 16, backbone not given here) [compound 12748]	74.8 °C
12749 (DNA AAAACGACAGCAAAAGGCTTTCTTC; sugars from the 5' end ddddlddlddlddddddlldlldld, [5mC] at 5, 8, 11, 18, 22, backbone not given here) [compound 12749]	72 °C
12750 (DNA ATTGACCTCAAATCTTTCTTGGATA; sugars from the 5' end dllddlllldddddlldllldddld, [5mC] at 6, 7, 9, 18, backbone not given here) [compound 12750]	72.2 °C
12751 (DNA CCCAACTTTGTGACGTTTAATAAAA; sugars from the 5' end llldddllddlddddlllddldddd, [5mC] at 1, 2, 3, backbone not given here) [compound 12751]	67.6 °C

Substance	Average duplex melting temp.
12752 (DNA ACCATCATCACCCAACTTTGTGTCG; DNA, backbone not given here; further chemistry not fully specified) [compound 12752]	67.5 °C
12753 (DNA CAATGATCGTGTTACGGAAATCAAC; DNA, backbone not given here; further chemistry not fully specified) [compound 12753]	64.2 °C
12754 (DNA TGGCCTAGGGAATCGGTCAGCTTAC; DNA, backbone not given here; further chemistry not fully specified) [compound 12754]	70.1 °C
12755 (DNA TTGGAAACATCGGGGTGCGCTTTTT; DNA, backbone not given here; further chemistry not fully specified) [compound 12755]	70.8 °C
12756 (DNA GAAACATCGGGGTGCGCTTTTTCAA; DNA, backbone not given here; further chemistry not fully specified) [compound 12756]	68.7 °C
12757 (DNA GACAGCCTCAGTTAATTGGCCACCA; DNA, backbone not given here; further chemistry not fully specified) [compound 12757]	70.2 °C
12758 (DNA CCGATTAAACGAGAGACAGTATGCT; DNA, backbone not given here; further chemistry not fully specified) [compound 12758]	65.4 °C
12759 (DNA ATCAAATAGGAATTCAGCTAAAGCC; DNA, backbone not given here; further chemistry not fully specified) [compound 12759]	61.5 °C
12760 (DNA GACCTAAGAACATAAAGCTGGCAAT; DNA, backbone not given here; further chemistry not fully specified) [compound 12760]	63.5 °C
12761 (DNA AAATAGCAGCAATGGCCTCGTCTTG; DNA, backbone not given here; further chemistry not fully specified) [compound 12761]	69.2 °C
12762 (DNA ATAGCAGCAATGGCCTCGTCTTGGC; DNA, backbone not given here; further chemistry not fully specified) [compound 12762]	72.7 °C
12763 (DNA GCAATGGCCTCGTCTTGGCCAACGA; DNA, backbone not given here; further chemistry not fully specified) [compound 12763]	72.8 °C
12764 (DNA GATGAACTCAGGTGGATAGGATCTT; DNA, backbone not given here; further chemistry not fully specified) [compound 12764]	64 °C
12765 (DNA TCAGTTAGCCAATCCTTCGCTTCAT; DNA, backbone not given here; further chemistry not fully specified) [compound 12765]	66.1 °C
12766 (DNA GTTGCCATGGAGTTCAAAATCTGTC; DNA, backbone not given here) [compound 12766]	65.8 °C
12767 (DNA AGACGTACAGCATCAGAAATAGCAG; DNA, backbone not given here; further chemistry not fully specified) [compound 12767]	66.6 °C
12768 (DNA TTTGGTAGCACGACAAGCTTAGTAT; DNA, backbone not given here) [compound 12768]	65.7 °C
12769 (DNA ATAAAGCTGGCAATAGGTCTCTTTT; DNA, backbone not given here; further chemistry not fully specified) [compound 12769]	63.6 °C
12770 (DNA TTTTTCGGCCAAACGATCTTGAATT; DNA, backbone not given here; further chemistry not fully specified) [compound 12770]	65 °C
12771 (DNA CACTCTAACAGTTTCGCCGTTTCTA; DNA, backbone not given here) [compound 12771]	66.3 °C
12772 (DNA TCAATGGCCTTGCACCATATAATTG; DNA, backbone not given here) [compound 12772]	64 °C
